Data from US7186545B2, “Probiotic strains from Lactobacillus salivarius and antimicrobial agents obtained therefrom” (Enterprise Ireland, priority 1997, dated 2007).

Test system: Lactobacillus isolates
Experiment: Antibiotic disc susceptibility assay
Details: sensitive if zone of 1 mm or greater
Protocol: Antibiotic sensitivity profiles of the isolates were determined using the ‘disc susceptibility’ assay. Cultures were grown up in the appropriate broth medium for 24–48 h, spread-plated (100 μl) onto agar media and discs containing known concentrations of the antibiotics were placed onto the agar. Strains were examined for antibiotic sensitivity after 1–2 days incubation at 37° under anaerobic conditions. Strains were considered sensitive if zones of inhibition of 1 mm or greater were seen.

| Molecule | Sensitivity of the lactobacilli to the antibiotic |
| --- | --- |
| NCC[C@H](O)C(=O)N[C@@H]1C[C@H](N)[C@@H](O[C@H]2O[C@H](CN)[C@@H](O)[C@H](O)[C@H]2O)[C@H](O)[C@H]1O[C@H]1O[C@H](CO)[C@@H](O)[C@H](N)[C@H]1O [amikacin] | resistant |
| CC1(C)S[C@@H]2[C@H](NC(=O)[C@H](N)c3ccc(O)cc3)C(=O)N2[C@H]1C(=O)O [amoxycillin] | sensitive |
| CC1(C)S[C@@H]2[C@H](NC(=O)[C@H](N)c3ccccc3)C(=O)N2[C@H]1C(=O)O [ampicillin] | sensitive |
| CO/N=C(\C(=O)N[C@@H]1C(=O)N2C(C(=O)O)=C(COC(C)=O)CS[C@H]12)c1csc(N)n1 [ceftaxime] | sensitive |
| CO/N=C(\C(=O)N[C@@H]1C(=O)N2C(C(=O)O)=CCS[C@H]12)c1csc(N)n1 [ceftizoxime] | Variable sensitivity |
| CO/N=C(\C(=O)N[C@@H]1C(=O)N2C(C(=O)O)=C(CSc3nc(=O)c(=O)[nH]n3C)CS[C@H]12)c1csc(N)n1 [ceftriaxone] | sensitive |
| CC1=C(C(=O)O)N2C(=O)[C@@H](NC(=O)[C@H](N)C3=CCC=CC3)[C@H]2SC1 [cephradine] | sensitive |
| O=C(N[C@H](CO)[C@H](O)c1ccc([N+](=O)[O-])cc1)C(Cl)Cl [chloramphenicol] | sensitive |
| O=C(O)c1cn(C2CC2)c2cc(N3CCNCC3)c(F)cc2c1=O [ciprofloxacin] | sensitive |
| CCn1cc(C(=O)O)c(=O)c2ccc(C)nc21 [nalidixic acid] | resistant |
| CCN[C@@H]1C[C@H](N)[C@@H](O[C@H]2OC(CN)=CC[C@H]2N)[C@H](O)[C@H]1O[C@H]1OC[C@](C)(O)[C@H](NC)[C@H]1O [netilmicin] | resistant |
| COc1cc(Cc2cnc(N)nc2N)cc(OC)c1OC [trimethoprim] | resistant |
| CN[C@H](CC(C)C)C(=O)N[C@H]1C(=O)N[C@@H](CC(N)=O)C(=O)N[C@H]2C(=O)N[C@H]3C(=O)N[C@H](C(=O)N[C@H](C(=O)O)c4cc(O)cc(O)c4-c4cc3ccc4O)[C@H](O)c3ccc(c(Cl)c3)Oc3cc2cc(c3O[C@@H]2O[C@H](CO)[C@@H](O)[C@H](O)[C@H]2O[C@H]2C[C@](C)(N)[C@H](O)[C@H](C)O2)Oc2ccc(cc2Cl)[C@H]1O [vancomycin] | resistant |
| gentamicin | resistant |
| teicoplanin | Variable sensitivity |
